In patent publication US20250186405A1, “Compound For Use In Treating Narcolepsy” (Alkermes, Inc., priority 2023, published 2025):

Tested on: healthy adult subjects
Assay: Part 2 MAD: treatment-emergent adverse events, once daily for 10 days (N = 6 per dose)
Assay type: in vivo, human
Text: Part 2 of the study is a MAD evaluation in healthy subjects consisting of 4 cohorts: Cohorts 1-4 received powder-in-capsule or matching placebo. Dose levels were as follows:
Safety assessments were made. A plasma PK sample was collected pre-dose on Day 8.

CS(=O)(=O)N[C@H]1CCCN2C(=O)COc3ccccc3C3CCC(CC3)OCC12 (stereo partly drawn) [Compound A, N-[(4S,4aR,7α,10α)-1,2,3,4,4a,5,7,8,9,10,16,17-dodecahydro-17-oxo-7,10-ethanopyrido[1,2-d][1,7,4]benzodioxaazacyclotridecin-4-yl]methanesulfonamide]
AE Leading to Study Drug Discontinuation (3 mg): 0 n
Any SAEs (3 mg): 0 n
Any TEAE (3 mg): 2 n
Death (3 mg): 0 n
TEAE Abdominal pain (3 mg): 0 n
TEAE Abdominal pain lower (3 mg): 0 n
TEAE Abnormal dreams (3 mg): 1 n
TEAE Back pain (3 mg): 0 n
TEAE Balance disorder (3 mg): 0 n
TEAE Blood pressure systolic increased (3 mg): 0 n
TEAE Cough (3 mg): 1 n
TEAE Depressed mood (3 mg): 0 n
TEAE Diarrhoea (3 mg): 0 n
TEAE Dizziness (3 mg): 0 n
TEAE Euphoric mood (3 mg): 0 n
TEAE Feeling of relaxation (3 mg): 0 n
TEAE Headache (3 mg): 0 n
TEAE Hypervigilance (3 mg): 0 n
TEAE Insomnia (3 mg): 0 n
TEAE Nocturia (3 mg): 0 n
TEAE Photophobia (3 mg): 0 n
TEAE Pollakiuria (3 mg): 0 n
TEAE Salivary hypersecretion (3 mg): 0 n
TEAE Visual impairment (3 mg): 0 n
TEAE Vomiting (3 mg): 0 n
TEAE by Highest Relationship: Not Related (3 mg): 2 n
TEAE by Highest Relationship: Related (3 mg): 0 n
TEAE by Highest Severity: Mild (3 mg): 2 n
TEAE by Highest Severity: Moderate (3 mg): 0 n
TEAE by Highest Severity: Severe (3 mg): 0 n
AE Leading to Study Drug Discontinuation (8 mg): 0 n
Any SAEs (8 mg): 0 n
Any TEAE (8 mg): 5 n
Death (8 mg): 0 n
TEAE Abdominal pain (8 mg): 1 n
TEAE Abdominal pain lower (8 mg): 1 n
TEAE Abnormal dreams (8 mg): 0 n
TEAE Back pain (8 mg): 0 n
TEAE Balance disorder (8 mg): 0 n
TEAE Blood pressure systolic increased (8 mg): 0 n
TEAE Cough (8 mg): 0 n
TEAE Depressed mood (8 mg): 1 n
TEAE Diarrhoea (8 mg): 2 n
TEAE Dizziness (8 mg): 0 n
TEAE Euphoric mood (8 mg): 0 n
TEAE Feeling of relaxation (8 mg): 0 n
TEAE Headache (8 mg): 0 n
TEAE Hypervigilance (8 mg): 1 n
TEAE Insomnia (8 mg): 2 n
TEAE Nocturia (8 mg): 1 n
TEAE Photophobia (8 mg): 1 n
TEAE Pollakiuria (8 mg): 0 n
TEAE Salivary hypersecretion (8 mg): 0 n
TEAE Visual impairment (8 mg): 0 n
TEAE Vomiting (8 mg): 1 n
TEAE by Highest Relationship: Not Related (8 mg): 3 n
TEAE by Highest Relationship: Related (8 mg): 2 n
TEAE by Highest Severity: Mild (8 mg): 4 n
TEAE by Highest Severity: Moderate (8 mg): 1 n
TEAE by Highest Severity: Severe (8 mg): 0 n
AE Leading to Study Drug Discontinuation (15 mg): 0 n
Any SAEs (15 mg): 0 n
Any TEAE (15 mg): 3 n
Death (15 mg): 0 n
TEAE Abdominal pain (15 mg): 0 n
TEAE Abdominal pain lower (15 mg): 0 n
TEAE Abnormal dreams (15 mg): 0 n
TEAE Back pain (15 mg): 0 n
TEAE Balance disorder (15 mg): 0 n
TEAE Blood pressure systolic increased (15 mg): 0 n
TEAE Cough (15 mg): 0 n
TEAE Depressed mood (15 mg): 0 n
TEAE Diarrhoea (15 mg): 0 n
TEAE Dizziness (15 mg): 3 n
TEAE Euphoric mood (15 mg): 0 n
TEAE Feeling of relaxation (15 mg): 0 n
TEAE Headache (15 mg): 1 n
TEAE Hypervigilance (15 mg): 0 n
TEAE Insomnia (15 mg): 1 n
TEAE Nocturia (15 mg): 0 n
TEAE Photophobia (15 mg): 0 n
TEAE Pollakiuria (15 mg): 1 n
TEAE Salivary hypersecretion (15 mg): 0 n
TEAE Visual impairment (15 mg): 2 n
TEAE Vomiting (15 mg): 0 n
TEAE by Highest Relationship: Not Related (15 mg): 0 n
TEAE by Highest Relationship: Related (15 mg): 3 n
TEAE by Highest Severity: Mild (15 mg): 3 n
TEAE by Highest Severity: Moderate (15 mg): 0 n
TEAE by Highest Severity: Severe (15 mg): 0 n
AE Leading to Study Drug Discontinuation (25 mg): 1 n
Any SAEs (25 mg): 0 n
Any TEAE (25 mg): 5 n
Death (25 mg): 0 n
TEAE Abdominal pain (25 mg): 0 n
TEAE Abdominal pain lower (25 mg): 0 n
TEAE Abnormal dreams (25 mg): 0 n
TEAE Back pain (25 mg): 1 n
TEAE Balance disorder (25 mg): 1 n
TEAE Blood pressure systolic increased (25 mg): 1 n
TEAE Cough (25 mg): 0 n
TEAE Depressed mood (25 mg): 0 n
TEAE Diarrhoea (25 mg): 0 n
TEAE Dizziness (25 mg): 3 n
TEAE Euphoric mood (25 mg): 1 n
TEAE Feeling of relaxation (25 mg): 1 n
TEAE Headache (25 mg): 0 n
TEAE Hypervigilance (25 mg): 0 n
TEAE Insomnia (25 mg): 3 n
TEAE Nocturia (25 mg): 0 n
TEAE Photophobia (25 mg): 0 n
TEAE Pollakiuria (25 mg): 2 n
TEAE Salivary hypersecretion (25 mg): 1 n
TEAE Visual impairment (25 mg): 1 n
TEAE Vomiting (25 mg): 0 n
TEAE by Highest Relationship: Not Related (25 mg): 0 n
TEAE by Highest Relationship: Related (25 mg): 5 n
TEAE by Highest Severity: Mild (25 mg): 4 n
TEAE by Highest Severity: Moderate (25 mg): 1 n
TEAE by Highest Severity: Severe (25 mg): 0 n
AE Leading to Study Drug Discontinuation (Total (N = 24)): 1 n
Any SAEs (Total (N = 24)): 0 n
Any TEAE (Total (N = 24)): 15 n
Death (Total (N = 24)): 0 n
TEAE Abdominal pain (Total (N = 24)): 1 n
TEAE Abdominal pain lower (Total (N = 24)): 1 n
TEAE Abnormal dreams (Total (N = 24)): 1 n
TEAE Back pain (Total (N = 24)): 1 n
TEAE Balance disorder (Total (N = 24)): 1 n
TEAE Blood pressure systolic increased (Total (N = 24)): 1 n
TEAE Cough (Total (N = 24)): 1 n
TEAE Depressed mood (Total (N = 24)): 1 n
TEAE Diarrhoea (Total (N = 24)): 2 n
TEAE Dizziness (Total (N = 24)): 6 n
TEAE Euphoric mood (Total (N = 24)): 1 n
TEAE Feeling of relaxation (Total (N = 24)): 1 n
TEAE Headache (Total (N = 24)): 1 n
TEAE Hypervigilance (Total (N = 24)): 1 n
TEAE Insomnia (Total (N = 24)): 6 n
TEAE Nocturia (Total (N = 24)): 1 n
TEAE Photophobia (Total (N = 24)): 1 n
TEAE Pollakiuria (Total (N = 24)): 3 n
TEAE Salivary hypersecretion (Total (N = 24)): 1 n
TEAE Visual impairment (Total (N = 24)): 3 n
TEAE Vomiting (Total (N = 24)): 1 n
TEAE by Highest Relationship: Not Related (Total (N = 24)): 5 n
TEAE by Highest Relationship: Related (Total (N = 24)): 10 n
TEAE by Highest Severity: Mild (Total (N = 24)): 13 n
TEAE by Highest Severity: Moderate (Total (N = 24)): 2 n
TEAE by Highest Severity: Severe (Total (N = 24)): 0 n
Tolerability (multiple doses 3 to 25 mg once daily for 10 days): well tolerated
